Source: the NIST ThermoML archive (doi:10.1021/je800110r)
Several values for one entry are separate records, joined by “and”; a condition that tells them apart may be missing. Equal entries are not always repeated.

Settings: Liquid, Vibrating tube method

CCCCCCCCCC [decane]
Settings	mass density
313.14 K, 33167 kPa	739.6 kg/m3
313.14 K, 33192 kPa	739.6 kg/m3
313.14 K, 33228 kPa	739.6 kg/m3
313.14 K, 33249 kPa	739.6 kg/m3
313.14 K, 33282 kPa	739.6 kg/m3
313.14 K, 33310 kPa	739.6 kg/m3
313.14 K, 33326 kPa	739.8 kg/m3
313.14 K, 33356 kPa	739.6 kg/m3
313.14 K, 33377 kPa	739.6 kg/m3
313.14 K, 33399 kPa	739.8 kg/m3
313.14 K, 33423 kPa	739.6 kg/m3
313.14 K, 33447 kPa	739.8 kg/m3
313.14 K, 33472 kPa	739.7 kg/m3
313.14 K, 33490 kPa	739.8 kg/m3
313.14 K, 33518 kPa	739.7 kg/m3
313.14 K, 33536 kPa	739.8 kg/m3
313.14 K, 33561 kPa	739.7 kg/m3
313.14 K, 33582 kPa	739.8 kg/m3
313.14 K, 33604 kPa	739.9 kg/m3
313.14 K, 33629 kPa	739.9 kg/m3
313.14 K, 33657 kPa	740 kg/m3
313.14 K, 33682 kPa	739.9 kg/m3
313.14 K, 33707 kPa	739.8 kg/m3
313.14 K, 33726 kPa	739.8 kg/m3
313.14 K, 33748 kPa	739.9 kg/m3
313.14 K, 33766 kPa	739.6 kg/m3
313.14 K, 33782 kPa	739.9 kg/m3
313.14 K, 33804 kPa	740 kg/m3
313.14 K, 33832 kPa	740 kg/m3
313.14 K, 33858 kPa	740 kg/m3
313.14 K, 33880 kPa	740 kg/m3
313.14 K, 33906 kPa	740.1 kg/m3
313.14 K, 33924 kPa	740.1 kg/m3
313.14 K, 33950 kPa	740 kg/m3
313.14 K, 33978 kPa	740.2 kg/m3
313.14 K, 33997 kPa	740.1 kg/m3
313.14 K, 34023 kPa	740.1 kg/m3
313.14 K, 34043 kPa	740.1 kg/m3
313.14 K, 34066 kPa	740.1 kg/m3
313.14 K, 34082 kPa	740.2 kg/m3
313.14 K, 34105 kPa	740.2 kg/m3
313.14 K, 34131 kPa	740.1 kg/m3
313.14 K, 34158 kPa	740.3 kg/m3
313.14 K, 34181 kPa	740.1 kg/m3
313.14 K, 34211 kPa	740.2 kg/m3
313.14 K, 34231 kPa	740.2 kg/m3
313.14 K, 34264 kPa	740.2 kg/m3
313.14 K, 34281 kPa	740.2 kg/m3
313.14 K, 34305 kPa	740.2 kg/m3
313.14 K, 34333 kPa	740.3 kg/m3
313.14 K, 34358 kPa	740.4 kg/m3
313.14 K, 34391 kPa	740.4 kg/m3
313.14 K, 34414 kPa	740.4 kg/m3
313.14 K, 34437 kPa	740.4 kg/m3
313.14 K, 34466 kPa	740.4 kg/m3
313.14 K, 34503 kPa	740.5 kg/m3
313.14 K, 34520 kPa	740.4 kg/m3
313.14 K, 34543 kPa	740.4 kg/m3
313.14 K, 34560 kPa	740.5 kg/m3
313.14 K, 34566 kPa	740.4 kg/m3
313.14 K, 34568 kPa	740.5 kg/m3
313.14 K, 34571 kPa	740.4 kg/m3 and 740.5 kg/m3
313.15 K, 1010 kPa	715.4 kg/m3
313.15 K, 1032 kPa	715.4 kg/m3
313.15 K, 1055 kPa	715.5 kg/m3
313.15 K, 1082 kPa	715.5 kg/m3
313.15 K, 1102 kPa	715.4 kg/m3
313.15 K, 1122 kPa	715.5 kg/m3
313.15 K, 1147 kPa	715.6 kg/m3
313.15 K, 1182 kPa	715.5 kg/m3
313.15 K, 1217 kPa	715.7 kg/m3
313.15 K, 1254 kPa	715.6 kg/m3
313.15 K, 3801 kPa	717.9 kg/m3
313.15 K, 6798 kPa	720.3 kg/m3
313.15 K, 6849 kPa	720.5 kg/m3
313.15 K, 6918 kPa	720.6 kg/m3
313.15 K, 6929 kPa	720.5 kg/m3
313.15 K, 7976 kPa	721.4 kg/m3
313.15 K, 7995 kPa	721.4 kg/m3
313.15 K, 8013 kPa	721.4 kg/m3
313.15 K, 8034 kPa	721.4 kg/m3
313.15 K, 8045 kPa	721.4 kg/m3
313.15 K, 8059 kPa	721.4 kg/m3
313.15 K, 8073 kPa	721.5 kg/m3
313.15 K, 8087 kPa	721.4 kg/m3
313.15 K, 8102 kPa	721.4 kg/m3
313.15 K, 8113 kPa	721.4 kg/m3
313.15 K, 8129 kPa	721.5 kg/m3
313.15 K, 8649 kPa	721.9 kg/m3
313.15 K, 8666 kPa	721.9 kg/m3
313.15 K, 8707 kPa	721.7 kg/m3
313.15 K, 15697 kPa	727.3 kg/m3
313.15 K, 15727 kPa	727.5 kg/m3
313.15 K, 15757 kPa	727.3 kg/m3
313.15 K, 15781 kPa	727.5 kg/m3
313.15 K, 15816 kPa	727.6 kg/m3
313.15 K, 15846 kPa	727.6 kg/m3
313.15 K, 15873 kPa	727.6 kg/m3
313.15 K, 17591 kPa	728.8 kg/m3
313.15 K, 17641 kPa	728.9 kg/m3
313.15 K, 17664 kPa	728.8 kg/m3
313.15 K, 17686 kPa	728.8 kg/m3
313.15 K, 17711 kPa	728.9 kg/m3
313.15 K, 17734 kPa	728.9 kg/m3
313.15 K, 20359 kPa	730.9 kg/m3
313.15 K, 20406 kPa	730.9 kg/m3
313.15 K, 20562 kPa	730.8 kg/m3
313.15 K, 20961 kPa	731.3 kg/m3
313.15 K, 20986 kPa	731.2 kg/m3
313.15 K, 21097 kPa	731.3 kg/m3
313.15 K, 21119 kPa	731.3 kg/m3
313.15 K, 21249 kPa	731.5 kg/m3
313.15 K, 21278 kPa	731.5 kg/m3
313.15 K, 21337 kPa	731.5 kg/m3
313.15 K, 21367 kPa	731.5 kg/m3
313.15 K, 21711 kPa	731.8 kg/m3
313.15 K, 21800 kPa	731.8 kg/m3
313.15 K, 22455 kPa	732.2 kg/m3
313.15 K, 22492 kPa	732.4 kg/m3
313.15 K, 22548 kPa	732.4 kg/m3
313.15 K, 22615 kPa	732.4 kg/m3
313.15 K, 22970 kPa	732.6 kg/m3
313.15 K, 22997 kPa	732.7 kg/m3
313.15 K, 23029 kPa	732.6 kg/m3
313.15 K, 23052 kPa	732.6 kg/m3
313.15 K, 23072 kPa	732.7 kg/m3
313.15 K, 23096 kPa	732.7 kg/m3
313.15 K, 23131 kPa	732.8 kg/m3
313.15 K, 23163 kPa	732.8 kg/m3
313.15 K, 23183 kPa	732.9 kg/m3
313.15 K, 23218 kPa	732.9 kg/m3
313.15 K, 23249 kPa	732.9 kg/m3
313.15 K, 23281 kPa	733 kg/m3
313.15 K, 23309 kPa	732.8 kg/m3
313.15 K, 23338 kPa	733 kg/m3
313.15 K, 23370 kPa	733 kg/m3
313.15 K, 25526 kPa	734.6 kg/m3
